# Laboratory results from patent US10787452B2 (Vertex Pharmaceuticals Incorporated, priority 2012, dated 2020).
# System: HCT116 colorectal cancer cells
# Assay: Cisplatin sensitization assay (96 h cell viability MTS);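 also: compound concentration needed to lower the Cisplatin-alone IC50 by a set fold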
# Format: cell-based
# Conditions: 96 h MTS, compound plus Cisplatin
# How it was run: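 Test compound and cisplatin were added together as a full matrix of 2-fold serial dilutions, each from a top final concentration of 10 μM. Cells were incubated 96 h at 37° C in 5% CO2, then viability was read by MTS after a further 1 h incubation.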
row,SMILES,Cisplatin Sensitization Assay
1,"Nc1nn2cc(F)cnc2c1C(=O)Nc1cncc(F)c1N1CCC(C(=O)N2CCN3CCC2C3)CC1 (centres unmarked) [I-G-46, N-(4-(4-(1,4-diazabicyclo[3.2.1]octane-4-carbonyl)piperidin-1-yl)-5-fluoropyridin-3-yl)-2-amino-6-fluoropyrazolo[1,5-a]pyrimidine-3-carboxamide]",+++ (Compounds with a Cisplatin sensitization value of <0.02 μM are marked with “+++.”)
2,"C[C@H]1CN(C(=O)C2CCN(c3c(F)cncc3NC(=O)c3c(N)nn4cc(F)cnc34)CC2)CCN1C [I-G-47, (S)-2-amino-N-(4-(4-(3,4-dimethylpiperazine-1-carbonyl)piperidin-1-yl)-5-fluoropyridin-3-yl)-6-fluoropyrazolo[1,5-a]pyrimidine-3-carboxamide]",+++ (Compounds with a Cisplatin sensitization value of <0.02 μM are marked with “+++.”)
3,"Nc1nn2cc(F)cnc2c1C(=O)Nc1cncc(Cl)c1N1CCC(C(=O)N2CCNCC2)CC1 [I-G-48, 2-amino-N-(5-chloro-4-(4-(piperazine-1-carbonyl)piperidin-1-yl)pyridin-3-yl)-6-fluoropyrazolo[1,5-a]pyrimidine-3-carboxamide]",+++ (Compounds with a Cisplatin sensitization value of <0.02 μM are marked with “+++.”)
4,"Nc1nn2cc(F)cnc2c1C(=O)Nc1cncc(F)c1N1CCC(C(=O)N2CC(N3CCC3)C2)CC1 [I-G-49, N-(4-(4-([1,3′-biazetidine]-1′-carbonyl)piperidin-1-yl)-5-fluoropyridin-3-yl)-2-amino-6-fluoropyrazolo[1,5-a]pyrimidine-3-carboxamide]",+++ (Compounds with a Cisplatin sensitization value of <0.02 μM are marked with “+++.”)
5,"C[C@@H]1CN(C(=O)C2CCN(c3c(F)cncc3NC(=O)c3c(N)nn4cc(F)cnc34)CC2)CCN1C [I-G-50, (R)-2-amino-N-(4-(4-(3,4-dimethylpiperazine-1-carbonyl)piperidin-1-yl)-5-fluoropyridin-3-yl)-6-fluoropyrazolo[1,5-a]pyrimidine-3-carboxamide]",+++ (Compounds with a Cisplatin sensitization value of <0.02 μM are marked with “+++.”)
6,"Nc1nn2cc(F)cnc2c1C(=O)Nc1cncc(F)c1N1CCC(C(=O)N2CC3CNCC3C2)CC1 (centres unmarked) [I-G-51, 2-amino-6-fluoro-N-(5-fluoro-4-(4-(octahydropyrrolo[3,4-c]pyrrole-2-carbonyl)piperidin-1-yl)pyridin-3-yl)pyrazolo[1,5-a]pyrimidine-3-carboxamide]",+++ (Compounds with a Cisplatin sensitization value of <0.02 μM are marked with “+++.”)
7,"CN1C2CCC1CN(C(=O)C1CCN(c3c(F)cncc3NC(=O)c3c(N)nn4cc(F)cnc34)CC1)C2 [I-G-52, 2-amino-6-fluoro-N-(5-fluoro-4-(4-(8-methyl-3,8-diazabicyclo[3.2.1]octane-3-carbonyl)piperidin-1-yl)pyridin-3-yl)pyrazolo[1,5-a]pyrimidine-3-carboxamide]",+++ (Compounds with a Cisplatin sensitization value of <0.02 μM are marked with “+++.”)
8,"CN1CC2CC1CN2C(=O)C1CCN(c2c(F)cncc2NC(=O)c2c(N)nn3cc(F)cnc23)CC1 (centres unmarked) [I-G-53, 2-amino-6-fluoro-N-(5-fluoro-4-(4-(5-methyl-2,5-diazabicyclo[2.2.1]heptane-2-carbonyl)piperidin-1-yl)pyridin-3-yl)pyrazolo[1,5-a]pyrimidine-3-carboxamide]",+++ (Compounds with a Cisplatin sensitization value of <0.02 μM are marked with “+++.”)
9,"CN1CCN(C(=O)C2(C)CCN(c3c(F)cncc3NC(=O)c3c(N)nn4cc(F)cnc34)CC2)CC1 [I-G-54, 2-amino-6-fluoro-N-(5-fluoro-4-(4-methyl-4-(4-methylpiperazine-1-carbonyl)piperidin-1-yl)pyridin-3-yl)pyrazolo[1,5-a]pyrimidine-3-carboxamide]",+++ (Compounds with a Cisplatin sensitization value of <0.02 μM are marked with “+++.”)
10,"Cc1cncc(NC(=O)c2c(N)nn3cc(F)cnc23)c1N1CCC(C(=O)N2CCN(C)CC2)CC1 [I-G-55, 2-amino-6-fluoro-N-(5-methyl-4-(4-(4-methylpiperazine-1-carbonyl)piperidin-1-yl)pyridin-3-yl)pyrazolo[1,5-a]pyrimidine-3-carboxamide]",+++ (Compounds with a Cisplatin sensitization value of <0.02 μM are marked with “+++.”)
11,"Cc1cncc(NC(=O)c2c(N)nn3cc(F)cnc23)c1N1CCC(C(=O)N2CCNCC2)CC1 [I-G-56, 2-amino-6-fluoro-N-(5-methyl-4-(4-(piperazine-1-carbonyl)piperidin-1-yl)pyridin-3-yl)pyrazolo[1,5-a]pyrimidine-3-carboxamide]",+++ (Compounds with a Cisplatin sensitization value of <0.02 μM are marked with “+++.”)
12,"Nc1nn2cc(F)cnc2c1C(=O)Nc1cncc(F)c1N1CCC(C(=O)N2CC(N3CCCCC3)C2)CC1 [I-G-57, 2-amino-6-fluoro-N-(5-fluoro-4-(4-(3-(piperidin-1-yl)azetidine-1-carbonyl)piperidin-1-yl)pyridin-3-yl)pyrazolo[1,5-a]pyrimidine-3-carboxamide]",+++ (Compounds with a Cisplatin sensitization value of <0.02 μM are marked with “+++.”)
13,"Nc1nn2cc(F)cnc2c1C(=O)Nc1cncc(F)c1N1CCC(C(=O)N2CC[C@H](N3CCCC3)C2)CC1 [I-G-58, (S)—N-(4-(4-([1,3′-bipyrrolidine]-1′-carbonyl)piperidin-1-yl)-5-fluoropyridin-3-yl)-2-amino-6-fluoropyrazolo[1,5-a]pyrimidine-3-carboxamide]",+++ (Compounds with a Cisplatin sensitization value of <0.02 μM are marked with “+++.”)
14,"Nc1nn2cc(F)cnc2c1C(=O)Nc1cncc(F)c1N1CCC(C(=O)N2CCC(N3CCCC3)CC2)CC1 [I-G-59, 2-amino-6-fluoro-N-(5-fluoro-4-(4-(4-(pyrrolidin-1-yl)piperidine-1-carbonyl)piperidin-1-yl)pyridin-3-yl)pyrazolo[1,5-a]pyrimidine-3-carboxamide]",+++ (Compounds with a Cisplatin sensitization value of <0.02 μM are marked with “+++.”)
15,"Nc1nn2cc(F)cnc2c1C(=O)Nc1cncc(F)c1N1CCC(C(=O)N2CCC(N3CCCCC3)CC2)CC1 [I-G-60, N-(4-(4-([1,4′-bipiperidine]-1′-carbonyl)piperidin-1-yl)-5-fluoropyridin-3-yl)-2-amino-6-fluoropyrazolo[1,5-a]pyrimidine-3-carboxamide]",+++ (Compounds with a Cisplatin sensitization value of <0.02 μM are marked with “+++.”)
16,"Nc1nn2cc(F)cnc2c1C(=O)Nc1cncc(F)c1N1CCC(C(=O)N2CCNC3CC32)CC1 (centres unmarked) [I-G-62, N-(4-(4-(2,5-diazabicyclo[4.1.0]heptane-2-carbonyl)piperidin-1-yl)-5-fluoropyridin-3-yl)-2-amino-6-fluoropyrazolo[1,5-a]pyrimidine-3-carboxamide]",+++ (Compounds with a Cisplatin sensitization value of <0.02 μM are marked with “+++.”)
17,"CC1(O)CN(C(=O)C2CCN(c3c(F)cncc3NC(=O)c3c(N)nn4cc(F)cnc34)CC2)C1 [I-G-63, 2-amino-6-fluoro-N-(5-fluoro-4-(4-(3-hydroxy-3-methylazetidine-1-carbonyl)piperidin-1-yl)pyridin-3-yl)pyrazolo[1,5-a]pyrimidine-3-carboxamide]",+++ (Compounds with a Cisplatin sensitization value of <0.02 μM are marked with “+++.”)
18,"Nc1nn2cc(F)cnc2c1C(=O)Nc1cncc(F)c1N1CCC(C(=O)N2CCC(N3CCCCC3)C2)CC1 (centres unmarked) [I-G-64, 2-amino-6-fluoro-N-(5-fluoro-4-(4-(3-(piperidin-1-yl)pyrrolidine-1-carbonyl)piperidin-1-yl)pyridin-3-yl)pyrazolo[1,5-a]pyrimidine-3-carboxamide]",+++ (Compounds with a Cisplatin sensitization value of <0.02 μM are marked with “+++.”)
19,"CN1CCN(C(=O)C2CCN(c3c(F)cncc3NC(=O)c3c(N)nn4cc(F)cnc34)CC2)C2CC21 (centres unmarked) [I-G-65, 2-amino-6-fluoro-N-(5-fluoro-4-(4-(5-methyl-2,5-diazabicyclo[4.1.0]heptane-2-carbonyl)piperidin-1-yl)pyridin-3-yl)pyrazolo[1,5-a]pyrimidine-3-carboxamide]",+++ (Compounds with a Cisplatin sensitization value of <0.02 μM are marked with “+++.”)
20,"Nc1nn2cc(F)cnc2c1C(=O)Nc1cncc(Cl)c1N1CCC(C(=O)N2CCN3CCC2CC3)CC1 [I-G-66, N-(4-(4-(1,4-diazabicyclo[3.2.2]nonane-4-carbonyl)piperidin-1-yl)-5-chloropyridin-3-yl)-2-amino-6-fluoropyrazolo[1,5-a]pyrimidine-3-carboxamide]",+++ (Compounds with a Cisplatin sensitization value of <0.02 μM are marked with “+++.”)
21,"Nc1nn2cc(F)cnc2c1C(=O)Nc1cncc(F)c1N1CCC(C(=O)N2CCC(N3CCC3)CC2)CC1 [I-G-68, 2-amino-N-(4-(4-(4-(azetidin-1-yl)piperidine-1-carbonyl)piperidin-1-yl)-5-fluoropyridin-3-yl)-6-fluoropyrazolo[1,5-a]pyrimidine-3-carboxamide]",+++ (Compounds with a Cisplatin sensitization value of <0.02 μM are marked with “+++.”)
22,"Nc1nn2cc(F)cnc2c1C(=O)Nc1cncc(Cl)c1N1CCC(C(=O)N2CCN3CCC2C3)CC1 (centres unmarked) [I-G-69, N-(4-(4-(1,4-diazabicyclo[3.2.1]octane-4-carbonyl)piperidin-1-yl)-5-chloropyridin-3-yl)-2-amino-6-fluoropyrazolo[1,5-a]pyrimidine-3-carboxamide]",+++ (Compounds with a Cisplatin sensitization value of <0.02 μM are marked with “+++.”)
23,"Nc1nn2cc(F)cnc2c1C(=O)Nc1cncc(F)c1N1CCC(C(=O)N2CC(F)(F)C2)CC1 [I-G-73, 2-amino-N-(4-(4-(3,3-difluoroazetidine-1-carbonyl)piperidin-1-yl)-5-fluoropyridin-3-yl)-6-fluoropyrazolo[1,5-a]pyrimidine-3-carboxamide]",+++ (Compounds with a Cisplatin sensitization value of <0.02 μM are marked with “+++.”)
